Assay results as given in publication PMC3407795 (EJNMMI Research, 2012).
Where two headings read alike, the source gives them in different places.

Legend:
[1] = Metabolism in blood (in vivo stability); design: species or system mouse; settings: healthy male Swiss albino mice, blood collected 5 min after iv injection (3 nmol), RP-HPLC radioanalysis
Procedure: The animals were kept for 5 min in cages with free access to water. They were sacrificed by cardiac puncture under ether anesthesia, and blood was withdrawn with a syringe and immediately placed in a pre-chilled EDTA-containing polypropylene vial on ice. Blood samples were centrifuged at 2,000 × g at 4 °C for 10 min.

[2] = Biodistribution in healthy mice; assay type: in vivo; settings: male, mouse, total radioactivity, healthy Swiss albino mice
Procedure: In the in vivo receptor blockade animal group, excess Tate (50 nmol) was administered intravenously (iv) together with the radioligand. Animals were sacrificed in groups of four at 4- and 24-h time points post injection (pi). […] Tissue distribution data were calculated as percent injected dose per gram (%ID/g) applying a suitable algorithm.
(§1) The in vivo data presented as mean %ID/g ± SD (n ≥ 4) were statistically analyzed with Student’s t test (Prism^TM 2.01, GraphPad Software, San Diego, CA, USA). Analyses were 2-tailed, and a P value < 0.05 was considered statistically significant.

[3] = Biodistribution in AR4-2J tumor-bearing mice; assay type: in vivo; settings: female, mouse, iv, total radioactivity, AR4-2J tumor SCID mice, mean ± SD; for tissue uptake at 1 h: 1 h pi
Procedure: In the flanks of each of female SCID mice, inocula (150 μL) containing a suspension of 0.8 × 10^7 AR4-2J cells in PBS buffer were subcutaneously injected. […] Mice were sacrificed at 4 h pi, and biodistribution was studied as described above.
as §1

[4] = Biodistribution in HEK293-hsst2A+ tumor-bearing mice; assay type: in vivo; settings: mouse, iv, total radioactivity, HEK293-hsst2A+ tumor SCID mice, mean ± SD
Procedure: (§2) In the flanks of SCID mice, inocula (150 μL) containing a suspension of 1.8 × 10^7 HEK293-hsst2A^+, -hsst3^+ or -hsst5^+ cells in PBS were subcutaneously injected. Tumors of substantial size were grown within 3 weeks, whereupon biodistribution experiments were performed.
as §1

[5] = Biodistribution in HEK293-hsst3+ tumor-bearing mice; assay type: in vivo; settings: mouse, iv, total radioactivity, HEK293-hsst3+ tumor SCID mice, 4 h pi, mean ± SD
Procedure: as §2, §1

[6] = Biodistribution in HEK293-hsst5+ tumor-bearing mice; assay type: in vivo; settings: mouse, iv, total radioactivity, HEK293-hsst5+ tumor SCID mice, 4 h pi, mean ± SD
Procedure: as §2, §1

[7] = Biodistribution in AR4-2J tumor-bearing mice; assay type: in vivo; settings: female, mouse, iv, total radioactivity, AR4-2J tumor SCID mice, 1 h pi, mean ± SD
[8] = blood, 10 pmol, 4 h pi, read-out: Blood uptake
[9] = femur, 10 pmol, 4 h pi, read-out: Femur uptake
[10] = heart, 10 pmol, read-out: Heart uptake
[11] = heart, 10 pmol, 4 h pi, read-out: Heart uptake
[12] = intestines, 10 pmol total peptide, read-out: Intestines uptake
[13] = intestines, 10 pmol total peptide, 4 h pi, read-out: Intestines uptake
[14] = 10 pmol, 4 h pi, read-out: Tumor uptake
[15] = kidneys, 10 pmol, read-out: Kidneys uptake
[16] = kidneys, 10 pmol, 4 h pi, read-out: Kidneys uptake
[17] = liver, 10 pmol, read-out: Liver uptake
[18] = liver, 10 pmol, 4 h pi, read-out: Liver uptake
[19] = lung, 10 pmol total peptide, read-out: Lung uptake
[20] = lung, 10 pmol total peptide, 4 h pi, read-out: Lung uptake
[21] = muscle, 10 pmol total peptide, read-out: Muscle uptake
[22] = muscle, 10 pmol total peptide, 4 h pi, read-out: Muscle uptake
[23] = pancreas, 10 pmol, read-out: Pancreas uptake
[24] = pancreas, 10 pmol, 4 h pi, read-out: Pancreas uptake
[25] = spleen, 10 pmol total peptide, 4 h pi, read-out: Spleen uptake
[26] = stomach, 10 pmol, read-out: Stomach uptake
[27] = stomach, 10 pmol, 4 h pi, read-out: Stomach uptake
[28] = blood, 10 pmol, read-out: Blood uptake
[29] = femur, 10 pmol, read-out: Femur uptake
[30] = 10 pmol, read-out: Tumor uptake
[31] = spleen, 10 pmol total peptide, read-out: Spleen uptake

SMILES: C[C@H](NC(=O)CN1CCN(CC(=O)O)CCN(CC(=O)O)CCN(CC(=O)O)CC1)C(=O)NCC(=O)N[C@H]1CSSC[C@@H](C(=O)O)NC(=O)[C@H](CO)NC(=O)[C@H]([C@@H](C)O)NC(=O)[C@H](Cc2ccccc2)NC(=O)[C@H]([C@@H](C)O)NC(=O)[C@H](CCCCN)NC(=O)[C@@H](Cc2c[nH]c3ccccc23)NC(=O)[C@H](Cc2ccccc2)NC(=O)[C@H](Cc2ccccc2)NC(=O)[C@H](CC(N)=O)NC(=O)[C@H](CCCCN)NC1=O [[^111In]AT2S, metal not drawn]
- intact radiopeptide detected in blood [1]: 6.5%
- tissue uptake at 4 h ([2]; kidney, 10 pmol total peptide, 4 h pi, iv 10 pmol, read-out: Kidney uptake): 22.9 %ID/g
- tissue uptake at 24 h ([2]; kidney, 10 pmol total peptide, 24 h pi, iv 10 pmol): 7.6 %ID/g
- tissue uptake at 4 h ([2]; pancreas, 10 pmol total peptide, 4 h pi, iv 10 pmol, read-out: Pancreas uptake): 2.9 %ID/g
- tissue uptake at 4 h ([2]; pancreas, iv, 4 h pi + excess Tate (50 nmol), read-out: Pancreas uptake, sst2 blockade): 0.17 %ID/g
- tissue uptake at 4 h [3, 8]: 0.19 ± 0.02 %ID/g
- tissue uptake at 4 h ([3]; blood, 4 h pi + co-injection of 50 nmol Tate, read-out: Blood uptake, blocked): 0.26 ± 0.03 %ID/g
- tissue uptake at 4 h [3, 9]: 0.4 ± 0.24 %ID/g
- tissue uptake at 4 h ([3]; femur, 4 h pi + co-injection of 50 nmol Tate, read-out: Femur uptake, blocked): 0.19 ± 0.02 %ID/g
- tissue uptake at 1 h [3, 10]: 0.67 ± 0.12 %ID/g
- tissue uptake at 4 h [3, 11]: 0.18 ± 0.05 %ID/g
- tissue uptake at 4 h ([3]; heart, 4 h pi + co-injection of 50 nmol Tate, read-out: Heart uptake, blocked): 0.17 ± 0.04 %ID/g
- tissue uptake at 1 h [3, 12]: 1.98 ± 0.29 %ID/g
- tissue uptake at 4 h [3, 13]: 1.92 ± 0.25 %ID/g
- tissue uptake at 4 h ([3]; intestines, 4 h pi + co-injection of 50 nmol Tate, read-out: Intestines uptake, blocked): 0.77 ± 0.58 %ID/g
- tissue uptake at 4 h [3, 14]: 1.82 ± 0.36 %ID/g
- tissue uptake at 4 h ([3]; 4 h pi + co-injection of 50 nmol Tate, read-out: Tumor uptake, blocked): 0.21 ± 0.17 %ID/g
- tissue uptake at 1 h [3, 15]: 23.8 ± 4.28 %ID/g
- tissue uptake at 4 h [3, 16]: 21.1 ± 4.43 %ID/g
- tissue uptake at 4 h ([3]; kidneys, 4 h pi + co-injection of 50 nmol Tate, read-out: Kidneys uptake, blocked): 24.4 ± 9.15 %ID/g
- tissue uptake at 1 h [3, 17]: 1.27 ± 0.09 %ID/g
- tissue uptake at 4 h [3, 18]: 0.95 ± 0.21 %ID/g
- tissue uptake at 4 h ([3]; liver, 4 h pi + co-injection of 50 nmol Tate, read-out: Liver uptake, blocked): 1.02 ± 0.11 %ID/g
- tissue uptake at 1 h [3, 19]: 2.05 ± 0.52 %ID/g
- tissue uptake at 4 h [3, 20]: 1.43 ± 1.36 %ID/g
- tissue uptake at 4 h ([3]; lung, 4 h pi + co-injection of 50 nmol Tate, read-out: Lung uptake, blocked): 3.3 ± 4.93 %ID/g
- tissue uptake at 1 h [3, 21]: 0.22 ± 0.02 %ID/g
- tissue uptake at 4 h [3, 22]: 0.06 ± 0.01 %ID/g
- tissue uptake at 4 h ([3]; muscle, 4 h pi + co-injection of 50 nmol Tate, read-out: Muscle uptake, blocked): 0.07 ± 0.01 %ID/g
- tissue uptake at 1 h [3, 23]: 7.35 ± 0.74 %ID/g
- tissue uptake at 4 h [3, 24]: 5.13 ± 0.75 %ID/g
- tissue uptake at 4 h ([3]; pancreas, 4 h pi + co-injection of 50 nmol Tate, read-out: Pancreas uptake, blocked): 0.15 ± 0.05 %ID/g
- tissue uptake at 4 h [3, 25]: 1.1 ± 0.63 %ID/g
- tissue uptake at 4 h ([3]; spleen, 4 h pi + co-injection of 50 nmol Tate, read-out: Spleen uptake, blocked): 0.61 ± 0.18 %ID/g
- tissue uptake at 1 h [3, 26]: 3.23 ± 0.77 %ID/g
- tissue uptake at 4 h [3, 27]: 1.81 ± 0.47 %ID/g
- tissue uptake at 4 h ([3]; stomach, 4 h pi + co-injection of 50 nmol Tate, read-out: Stomach uptake, blocked): 0.18 ± 0.07 %ID/g
- tissue uptake at 4 h [4, 8]: 0.23 ± 0.07 %ID/g
- tissue uptake at 4 h ([4]; blood, 4 h pi + co-injection of 35 nmol DP2, read-out: Blood uptake, blocked): 0.66 ± 0.35 %ID/g
- tissue uptake at 4 h [4, 9]: 0.24 ± 0.09 %ID/g
- tissue uptake at 4 h ([4]; femur, 4 h pi + co-injection of 35 nmol DP2, read-out: Femur uptake, blocked): 0.21 ± 0.11 %ID/g
- tissue uptake at 4 h [4, 11]: 0.22 ± 0.05 %ID/g
- tissue uptake at 4 h ([4]; heart, 4 h pi + co-injection of 35 nmol DP2, read-out: Heart uptake, blocked): 0.38 ± 0.1 %ID/g
- tissue uptake at 4 h [4, 13]: 2 ± 0.48 %ID/g
- tissue uptake at 4 h ([4]; intestines, 4 h pi + co-injection of 35 nmol DP2, read-out: Intestines uptake, blocked): 1.74 ± 1.02 %ID/g
- tissue uptake at 4 h [4, 14]: 1.49 ± 0.2 %ID/g
- tissue uptake at 4 h ([4]; 4 h pi + co-injection of 35 nmol DP2, read-out: Tumor uptake, blocked): 0.27 ± 0.2 %ID/g
- tissue uptake at 4 h [4, 16]: 23.2 ± 7.04 %ID/g
- tissue uptake at 4 h ([4]; kidneys, 4 h pi + co-injection of 35 nmol DP2, read-out: Kidneys uptake, blocked): 25.5 ± 3.7 %ID/g
- tissue uptake at 4 h [4, 18]: 1.31 ± 0.36 %ID/g
- tissue uptake at 4 h ([4]; liver, 4 h pi + co-injection of 35 nmol DP2, read-out: Liver uptake, blocked): 0.963 ± 0.67 %ID/g
- tissue uptake at 4 h [4, 20]: 1.37 ± 0.55 %ID/g
- tissue uptake at 4 h ([4]; lung, 4 h pi + co-injection of 35 nmol DP2, read-out: Lung uptake, blocked): 0.47 ± 0.08 %ID/g
- tissue uptake at 4 h [4, 22]: 0.07 ± 0.02 %ID/g
- tissue uptake at 4 h ([4]; muscle, 4 h pi + co-injection of 35 nmol DP2, read-out: Muscle uptake, blocked): 0.07 ± 0.03 %ID/g
- tissue uptake at 4 h [4, 24]: 5.73 ± 1.28 %ID/g
- tissue uptake at 4 h ([4]; pancreas, 4 h pi + co-injection of 35 nmol DP2, read-out: Pancreas uptake, blocked): 0.16 ± 0.1 %ID/g
- tissue uptake at 4 h [4, 25]: 0.46 ± 0.11 %ID/g
- tissue uptake at 4 h ([4]; spleen, 4 h pi + co-injection of 35 nmol DP2, read-out: Spleen uptake, blocked): 0.5 ± 0.36 %ID/g
- tissue uptake at 4 h [4, 27]: 1.96 ± 0.53 %ID/g
- tissue uptake at 4 h ([4]; stomach, 4 h pi + co-injection of 35 nmol DP2, read-out: Stomach uptake, blocked): 1.29 ± 0.36 %ID/g
- tissue uptake at 4 h [5, 28]: 0.19 ± 0.03 %ID/g
- tissue uptake at 4 h [5, 29]: 0.23 ± 0.03 %ID/g
- tissue uptake at 4 h [5, 10]: 0.15 ± 0.04 %ID/g
- tissue uptake at 4 h [5, 12]: 2.39 ± 0.43 %ID/g
- tissue uptake at 4 h [5, 30]: 1.24 ± 0.27 %ID/g
- tissue uptake at 4 h [5, 15]: 23.4 ± 4.69 %ID/g
- tissue uptake at 4 h [5, 17]: 1.02 ± 0.19 %ID/g
- tissue uptake at 4 h [5, 19]: 0.68 ± 0.29 %ID/g
- tissue uptake at 4 h [5, 21]: 0.06 ± 0.01 %ID/g
- tissue uptake at 4 h [5, 23]: 3.33 ± 0.4 %ID/g
- tissue uptake at 4 h [5, 31]: 0.82 ± 0.11 %ID/g
- tissue uptake at 4 h [5, 26]: 3.41 ± 0.97 %ID/g
- tissue uptake at 4 h [6, 28]: 0.1 ± 0.04 %ID/g
- tissue uptake at 4 h [6, 10]: 0.15 ± 0.02 %ID/g
- tissue uptake at 4 h [6, 12]: 1.54 ± 0.09 %ID/g
- tissue uptake at 4 h [6, 30]: 0.41 ± 0.12 %ID/g
- tissue uptake at 4 h [6, 15]: 24.1 ± 1.21 %ID/g
- tissue uptake at 4 h [6, 17]: 1.1 ± 0.08 %ID/g
- tissue uptake at 4 h ([6]; lung, 10 pmol, read-out: Lung uptake): 0.56 ± 0.28 %ID/g
- tissue uptake at 4 h [6, 21]: 0.06 ± 0.01 %ID/g
- tissue uptake at 4 h [6, 23]: 2.79 ± 0.4 %ID/g
- tissue uptake at 4 h [6, 31]: 0.78 ± 0.07 %ID/g
- tissue uptake at 4 h [6, 26]: 3.06 ± 0.73 %ID/g
- tissue uptake at 1 h [7, 28]: 1.34 ± 0.21 %ID/g
- tissue uptake at 1 h [7, 29]: 0.49 ± 0.12 %ID/g
- tissue uptake at 1 h [7, 30]: 3.05 ± 0.51 %ID/g
- tissue uptake at 1 h [7, 31]: 0.84 ± 0.21 %ID/g
